From paper PMC5791972 (PLoS ONE, 2018)
Where “and” joins values, the source holds several entries; their conditions need not be identical. Equal values may be shown once. Starred links: 1 amine or outer side, 2 acyl side, 3 side chain; linkers in the order of their positions; H or OH if unused. Positions of bridges follow the written chain, without caps; N, C: chain ends. Residues, ends and D or L forms follow the SMILES beside them. X1 = O=C(CC1(S[*:2])CCCCC1)[*:1]

What was measured:
M4 (h) = target: T1, M4 (h) (Homo sapiens, UniProt P08173)
T1 sequence (P08173 1-479): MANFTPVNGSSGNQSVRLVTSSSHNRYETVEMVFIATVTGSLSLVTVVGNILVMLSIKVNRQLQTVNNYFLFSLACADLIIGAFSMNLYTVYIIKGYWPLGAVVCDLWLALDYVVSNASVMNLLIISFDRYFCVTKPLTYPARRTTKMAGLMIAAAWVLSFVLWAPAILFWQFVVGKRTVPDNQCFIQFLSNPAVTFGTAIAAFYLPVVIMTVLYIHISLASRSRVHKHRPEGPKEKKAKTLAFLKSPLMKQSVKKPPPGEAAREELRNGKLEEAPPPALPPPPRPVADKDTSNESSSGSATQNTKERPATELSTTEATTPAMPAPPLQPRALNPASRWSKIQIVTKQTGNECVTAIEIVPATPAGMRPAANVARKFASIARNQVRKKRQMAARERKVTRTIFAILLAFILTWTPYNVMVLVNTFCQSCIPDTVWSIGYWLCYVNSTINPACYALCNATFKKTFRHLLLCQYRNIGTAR

M5 (h) = target: T2, M5 (h) (Homo sapiens, UniProt P08912); format: binding
T2 construct: host or cells: CHO cells
T2 sequence (P08912 1-532): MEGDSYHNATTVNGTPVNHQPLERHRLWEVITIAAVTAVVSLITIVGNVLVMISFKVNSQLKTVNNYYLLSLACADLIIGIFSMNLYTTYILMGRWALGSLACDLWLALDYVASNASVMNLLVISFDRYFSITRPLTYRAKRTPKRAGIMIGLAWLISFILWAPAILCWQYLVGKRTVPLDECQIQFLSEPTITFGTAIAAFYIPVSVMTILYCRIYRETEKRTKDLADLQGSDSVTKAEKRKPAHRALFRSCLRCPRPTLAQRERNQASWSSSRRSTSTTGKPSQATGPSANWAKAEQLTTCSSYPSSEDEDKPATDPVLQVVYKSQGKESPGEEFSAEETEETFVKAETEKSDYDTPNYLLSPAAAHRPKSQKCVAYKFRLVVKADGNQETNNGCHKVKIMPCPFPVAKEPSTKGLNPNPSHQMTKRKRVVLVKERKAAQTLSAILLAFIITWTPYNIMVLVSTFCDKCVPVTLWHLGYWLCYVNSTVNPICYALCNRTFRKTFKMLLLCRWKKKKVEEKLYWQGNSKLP

M3 (h) = M3 (h) (Homo sapiens, UniProt P20309)
GABAB(1b) (h) = GABAB(1b) (h) (Homo sapiens, UniProt Q9UBS5)
MMP-9 (h) = MMP-9 (h) (Homo sapiens, UniProt P14780); assay: biochemical; format: biochemical
5-HT3 (h) = target: T3, 5-HT3 (h) (Homo sapiens, UniProt P46098)
T3 sequence (P46098 24-478): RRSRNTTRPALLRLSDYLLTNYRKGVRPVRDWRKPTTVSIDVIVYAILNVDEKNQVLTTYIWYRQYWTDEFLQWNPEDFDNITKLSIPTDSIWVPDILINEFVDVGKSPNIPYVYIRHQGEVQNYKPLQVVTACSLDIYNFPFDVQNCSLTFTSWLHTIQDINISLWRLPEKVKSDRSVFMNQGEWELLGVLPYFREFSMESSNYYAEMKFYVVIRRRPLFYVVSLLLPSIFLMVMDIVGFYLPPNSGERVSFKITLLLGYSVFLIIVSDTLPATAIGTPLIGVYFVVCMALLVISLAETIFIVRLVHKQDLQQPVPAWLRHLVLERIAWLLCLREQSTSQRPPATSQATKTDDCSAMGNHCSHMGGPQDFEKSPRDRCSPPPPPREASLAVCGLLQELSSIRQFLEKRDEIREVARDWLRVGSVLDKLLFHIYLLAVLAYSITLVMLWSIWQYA

NMRI mice = assay: Locomotor activity; format: in vivo, mouse; settings: 5 mg/kg subcutaneously
Method: NMRI mice were habituated to their room for at least 2 weeks after the delivery and kept under standard conditions in groups of 4–5 animals per cage. Food and water were available ad libitum.
Spontaneous motility and rearing were measured by an automated system (Coulbourn Instruments, USA). Animals were introduced into transparent square cages (40 cm length) that are equipped with 2 light barrier systems in order to monitor the movements as well as rearing behavior automatically. The movements of the animals were recorded for 30 minutes. At the end of the experiment, the animals were sacrificed via isofluorane inhalation and subsequent decapitation.

p38α kinase (h) = p38α kinase (h) (Homo sapiens, UniProt Q16539); assay: enzyme assay; format: biochemical
V1a (h) = target: T4, V1a (h) (Homo sapiens, UniProt P37288); format: binding
T4 construct: host or cells: CHO cells

GR (h) = target: T5, GR (h) (Homo sapiens, UniProt P04150); format: binding
T5 construct: IM-9 cells; host or cells: IM-9 cells (cytosol)

[1] = target: Ca2+ channel (L, diltiazem site) (benzothiazepines) (Rattus norvegicus, UniProt P22002); format: binding
PDE5 (h) (non-selective) = PDE5 (h) (non-selective) (Homo sapiens, UniProt O76074)
5-HT transporter (h) = target: T6, 5-HT transporter (h) (Homo sapiens, UniProt P31645); format: binding
T6 construct: host or cells: CHO cells

CD-1 mice = assay: Forced swim test; settings: 20 mg/kg IP, 45 min prior, CD-1 mice
5-HT2A (h) = target: T7, 5-HT2A (h) (Homo sapiens, UniProt P28223); format: binding
T7 construct: host or cells: HEK-293 cells

M2 (h) = target: T8, M2 (h) (Homo sapiens, UniProt P08172)
T8 sequence (P08172 1-466): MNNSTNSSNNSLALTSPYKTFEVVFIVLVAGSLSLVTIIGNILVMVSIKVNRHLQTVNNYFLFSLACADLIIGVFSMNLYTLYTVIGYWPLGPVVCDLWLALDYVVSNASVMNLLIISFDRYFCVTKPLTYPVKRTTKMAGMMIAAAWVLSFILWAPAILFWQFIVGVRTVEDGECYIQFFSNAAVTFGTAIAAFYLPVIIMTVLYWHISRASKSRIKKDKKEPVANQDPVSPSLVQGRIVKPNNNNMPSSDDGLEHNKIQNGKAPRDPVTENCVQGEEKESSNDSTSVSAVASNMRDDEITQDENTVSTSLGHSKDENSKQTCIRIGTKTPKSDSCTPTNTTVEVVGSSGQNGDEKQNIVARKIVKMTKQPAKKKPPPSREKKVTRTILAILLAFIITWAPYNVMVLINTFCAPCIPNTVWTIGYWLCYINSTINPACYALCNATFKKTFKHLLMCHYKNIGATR

PDE3A (h) = PDE3A (h) (Homo sapiens, UniProt Q14432); assay: biochemical
ATPase (Na+/K+) = assay: enzyme assay; format: biochemical, porcine
[2] = target: T9, FLT-1 kinase (h) (VEGFR1) (Homo sapiens, UniProt P17948); assay: enzyme assay; format: biochemical
T9 construct: host or cells: Sf9 cells

ZAP70 kinase (h) = target: T10, ZAP70 kinase (h) (Homo sapiens, UniProt P43403); assay: biochemical
T10 construct: host or cells: insect cells
T10 sequence (P43403 1-619): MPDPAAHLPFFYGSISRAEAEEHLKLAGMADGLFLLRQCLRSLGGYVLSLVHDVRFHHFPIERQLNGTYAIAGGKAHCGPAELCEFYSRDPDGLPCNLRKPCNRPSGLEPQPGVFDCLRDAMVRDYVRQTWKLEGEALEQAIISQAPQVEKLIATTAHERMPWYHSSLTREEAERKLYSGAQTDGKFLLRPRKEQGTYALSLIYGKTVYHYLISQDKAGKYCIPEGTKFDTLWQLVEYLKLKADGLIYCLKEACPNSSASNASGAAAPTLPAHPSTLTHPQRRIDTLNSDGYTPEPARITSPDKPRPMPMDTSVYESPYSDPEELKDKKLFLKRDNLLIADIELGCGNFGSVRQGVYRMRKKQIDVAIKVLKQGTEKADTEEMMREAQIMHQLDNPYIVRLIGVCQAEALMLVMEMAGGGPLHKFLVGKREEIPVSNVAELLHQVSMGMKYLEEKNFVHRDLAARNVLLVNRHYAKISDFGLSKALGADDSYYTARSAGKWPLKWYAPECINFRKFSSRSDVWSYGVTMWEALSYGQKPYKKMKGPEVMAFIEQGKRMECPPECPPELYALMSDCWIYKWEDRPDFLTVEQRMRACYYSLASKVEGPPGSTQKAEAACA

Ca2+ channel (N) = Ca2+ channel (N) (Rattus norvegicus, UniProt Q02294); assay: biochemical; format: binding
D2S (h) = D2S (h) (Homo sapiens, UniProt P14416)
Chain of D2S (h) (P14416 1-414 isoform P14416-2): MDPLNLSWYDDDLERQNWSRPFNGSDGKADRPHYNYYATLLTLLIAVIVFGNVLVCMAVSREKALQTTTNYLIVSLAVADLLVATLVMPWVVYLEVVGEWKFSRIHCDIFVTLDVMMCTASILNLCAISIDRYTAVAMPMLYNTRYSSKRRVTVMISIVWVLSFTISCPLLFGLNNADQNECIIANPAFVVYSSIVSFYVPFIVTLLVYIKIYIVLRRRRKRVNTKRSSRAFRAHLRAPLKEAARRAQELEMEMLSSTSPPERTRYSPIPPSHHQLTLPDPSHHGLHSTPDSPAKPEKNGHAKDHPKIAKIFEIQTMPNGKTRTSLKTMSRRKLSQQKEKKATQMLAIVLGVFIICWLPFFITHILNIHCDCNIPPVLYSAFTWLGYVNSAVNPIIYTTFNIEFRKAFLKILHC

T4 sequence (P37288 whole entry): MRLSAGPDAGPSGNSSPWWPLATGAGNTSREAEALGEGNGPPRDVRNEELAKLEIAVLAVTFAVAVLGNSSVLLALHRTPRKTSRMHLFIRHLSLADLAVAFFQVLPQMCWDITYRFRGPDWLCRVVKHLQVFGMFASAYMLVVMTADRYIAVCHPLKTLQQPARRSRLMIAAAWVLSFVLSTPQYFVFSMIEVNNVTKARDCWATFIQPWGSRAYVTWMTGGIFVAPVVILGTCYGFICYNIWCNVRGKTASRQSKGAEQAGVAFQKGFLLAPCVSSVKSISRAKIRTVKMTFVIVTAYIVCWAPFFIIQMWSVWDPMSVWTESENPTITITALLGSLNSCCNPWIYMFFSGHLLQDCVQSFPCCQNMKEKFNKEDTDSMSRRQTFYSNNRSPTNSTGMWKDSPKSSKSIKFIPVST
T7 sequence (P28223 whole entry): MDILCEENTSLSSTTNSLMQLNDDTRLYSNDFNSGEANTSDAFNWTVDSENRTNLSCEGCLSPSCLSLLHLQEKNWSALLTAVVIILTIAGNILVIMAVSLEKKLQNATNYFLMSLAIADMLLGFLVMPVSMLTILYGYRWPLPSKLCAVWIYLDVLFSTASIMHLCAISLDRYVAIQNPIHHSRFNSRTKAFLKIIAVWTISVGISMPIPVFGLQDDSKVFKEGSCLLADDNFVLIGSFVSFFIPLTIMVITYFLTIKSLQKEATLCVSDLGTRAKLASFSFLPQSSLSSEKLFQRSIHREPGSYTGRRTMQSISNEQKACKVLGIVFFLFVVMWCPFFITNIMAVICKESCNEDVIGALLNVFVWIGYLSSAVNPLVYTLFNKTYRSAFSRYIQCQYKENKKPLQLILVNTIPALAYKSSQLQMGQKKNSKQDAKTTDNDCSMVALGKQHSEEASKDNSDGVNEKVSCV
T9 sequence (P17948 27-1338): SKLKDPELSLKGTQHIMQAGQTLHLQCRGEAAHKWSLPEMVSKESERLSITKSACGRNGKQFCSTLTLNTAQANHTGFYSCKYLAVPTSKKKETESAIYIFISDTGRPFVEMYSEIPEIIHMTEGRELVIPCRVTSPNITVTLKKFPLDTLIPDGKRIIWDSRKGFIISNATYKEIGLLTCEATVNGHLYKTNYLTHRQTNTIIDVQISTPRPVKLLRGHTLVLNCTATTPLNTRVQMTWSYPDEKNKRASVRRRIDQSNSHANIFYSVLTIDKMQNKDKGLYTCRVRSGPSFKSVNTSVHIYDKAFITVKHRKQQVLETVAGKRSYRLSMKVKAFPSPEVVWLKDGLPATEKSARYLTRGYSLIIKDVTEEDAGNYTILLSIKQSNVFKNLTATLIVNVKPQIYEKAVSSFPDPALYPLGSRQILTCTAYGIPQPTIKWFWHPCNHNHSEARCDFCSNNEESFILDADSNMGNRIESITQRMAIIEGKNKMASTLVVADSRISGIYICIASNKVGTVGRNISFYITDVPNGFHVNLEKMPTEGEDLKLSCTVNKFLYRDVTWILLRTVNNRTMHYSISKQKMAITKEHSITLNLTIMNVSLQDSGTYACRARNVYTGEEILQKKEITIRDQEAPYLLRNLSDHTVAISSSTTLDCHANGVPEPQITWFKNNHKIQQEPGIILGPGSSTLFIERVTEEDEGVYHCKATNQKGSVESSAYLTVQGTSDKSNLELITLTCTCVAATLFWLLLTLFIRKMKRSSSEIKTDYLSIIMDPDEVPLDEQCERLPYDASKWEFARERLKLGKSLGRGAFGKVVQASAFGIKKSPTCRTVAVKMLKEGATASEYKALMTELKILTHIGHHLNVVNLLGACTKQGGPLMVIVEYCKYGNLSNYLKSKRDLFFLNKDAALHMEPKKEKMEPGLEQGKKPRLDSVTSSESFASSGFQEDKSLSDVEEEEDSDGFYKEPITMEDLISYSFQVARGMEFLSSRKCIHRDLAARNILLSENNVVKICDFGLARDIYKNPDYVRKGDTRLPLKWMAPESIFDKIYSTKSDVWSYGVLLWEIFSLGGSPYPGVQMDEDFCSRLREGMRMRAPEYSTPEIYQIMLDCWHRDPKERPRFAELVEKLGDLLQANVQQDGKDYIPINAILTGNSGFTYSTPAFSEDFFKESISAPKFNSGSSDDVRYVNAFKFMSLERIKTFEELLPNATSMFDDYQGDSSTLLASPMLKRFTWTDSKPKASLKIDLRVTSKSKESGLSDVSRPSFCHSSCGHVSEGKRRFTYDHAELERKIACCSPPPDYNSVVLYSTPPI
Chain of GABAB(1b) (h) (Q9UBS5 1-844 isoform Q9UBS5-2): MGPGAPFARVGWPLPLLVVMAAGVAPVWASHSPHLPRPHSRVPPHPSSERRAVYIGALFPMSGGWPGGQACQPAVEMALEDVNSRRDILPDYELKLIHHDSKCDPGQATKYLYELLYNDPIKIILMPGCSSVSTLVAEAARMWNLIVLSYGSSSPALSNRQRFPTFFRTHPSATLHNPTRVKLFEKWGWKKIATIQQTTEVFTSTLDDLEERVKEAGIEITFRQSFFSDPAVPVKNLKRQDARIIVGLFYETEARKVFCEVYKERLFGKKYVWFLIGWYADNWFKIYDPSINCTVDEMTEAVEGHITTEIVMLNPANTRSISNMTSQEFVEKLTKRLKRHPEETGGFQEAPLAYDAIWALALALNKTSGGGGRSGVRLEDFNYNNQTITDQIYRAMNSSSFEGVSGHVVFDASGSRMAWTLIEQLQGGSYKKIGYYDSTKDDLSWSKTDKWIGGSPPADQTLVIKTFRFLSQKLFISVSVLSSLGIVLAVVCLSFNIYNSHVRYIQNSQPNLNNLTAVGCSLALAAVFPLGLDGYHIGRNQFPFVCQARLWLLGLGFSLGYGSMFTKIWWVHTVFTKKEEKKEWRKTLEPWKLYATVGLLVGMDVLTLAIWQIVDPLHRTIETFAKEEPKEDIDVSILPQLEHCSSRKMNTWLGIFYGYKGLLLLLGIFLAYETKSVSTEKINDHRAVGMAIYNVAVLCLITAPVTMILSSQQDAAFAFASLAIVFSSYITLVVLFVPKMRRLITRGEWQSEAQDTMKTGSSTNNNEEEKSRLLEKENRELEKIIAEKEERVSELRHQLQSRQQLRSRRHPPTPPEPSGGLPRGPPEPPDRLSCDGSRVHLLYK
Chain of GABAB(1b) (h) (O75899 42-941 partner): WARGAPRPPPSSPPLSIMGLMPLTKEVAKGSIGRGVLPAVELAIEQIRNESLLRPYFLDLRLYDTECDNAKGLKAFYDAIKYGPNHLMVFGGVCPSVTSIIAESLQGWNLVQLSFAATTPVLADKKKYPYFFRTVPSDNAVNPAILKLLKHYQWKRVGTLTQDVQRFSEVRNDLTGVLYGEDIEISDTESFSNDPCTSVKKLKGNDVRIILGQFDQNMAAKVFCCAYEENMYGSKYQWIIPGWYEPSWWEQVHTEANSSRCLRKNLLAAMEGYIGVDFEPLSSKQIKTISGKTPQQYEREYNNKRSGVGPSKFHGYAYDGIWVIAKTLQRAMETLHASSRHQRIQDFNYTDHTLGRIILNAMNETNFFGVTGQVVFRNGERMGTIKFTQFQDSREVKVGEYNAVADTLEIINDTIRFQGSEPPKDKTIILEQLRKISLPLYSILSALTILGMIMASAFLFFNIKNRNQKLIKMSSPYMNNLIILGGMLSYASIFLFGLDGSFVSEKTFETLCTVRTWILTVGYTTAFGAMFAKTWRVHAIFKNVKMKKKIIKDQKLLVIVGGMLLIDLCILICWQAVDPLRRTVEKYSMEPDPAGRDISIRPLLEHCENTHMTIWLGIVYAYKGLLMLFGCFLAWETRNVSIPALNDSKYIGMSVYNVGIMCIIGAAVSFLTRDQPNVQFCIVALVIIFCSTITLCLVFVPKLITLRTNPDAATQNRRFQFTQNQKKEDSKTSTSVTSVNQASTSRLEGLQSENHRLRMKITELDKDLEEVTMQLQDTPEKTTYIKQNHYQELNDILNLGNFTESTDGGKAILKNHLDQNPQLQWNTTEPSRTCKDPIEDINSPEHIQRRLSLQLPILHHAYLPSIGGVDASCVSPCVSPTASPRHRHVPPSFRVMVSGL
Chain of p38α kinase (h) (Q16539 whole entry): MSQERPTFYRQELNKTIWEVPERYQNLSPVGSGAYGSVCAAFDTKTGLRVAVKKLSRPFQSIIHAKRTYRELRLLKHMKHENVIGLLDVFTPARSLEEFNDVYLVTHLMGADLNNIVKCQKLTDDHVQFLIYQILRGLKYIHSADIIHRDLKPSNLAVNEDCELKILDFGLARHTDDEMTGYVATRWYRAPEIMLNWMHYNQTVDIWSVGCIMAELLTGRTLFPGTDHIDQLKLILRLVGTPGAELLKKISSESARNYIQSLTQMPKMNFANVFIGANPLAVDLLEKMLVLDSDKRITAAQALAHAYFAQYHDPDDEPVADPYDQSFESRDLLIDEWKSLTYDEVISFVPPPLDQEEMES

**Q.** How did the nH (M4 (h)) turn out when `C[N+]1(C)CCC(OC(=O)C(c2ccccc2)c2ccccc2)CC1.[I-]` [4-DAMP, reference compound] was run?
**A.** 0.8

**Q.** What about the IC50 (M5 (h)) of the same molecule?
**A.** 0.76 nM and 0.45 nM

**Q.** What about the Ki (M5 (h)) of the same molecule?
**A.** 0.38 nM and 0.22 nM

**Q.** And the nH (M5 (h))?
**A.** 0.8

**Q.** What about the nH (M3 (h)) of the same molecule?
**A.** 1.2

**Q.** For `C[C@H](NC[C@H](O)CP(=O)(O)CC1CCCCC1)c1ccc(Cl)c(Cl)c1` [CGP 54626], which nH (GABAB(1b) (h)) is on record?
**A.** 0.9

**Q.** For `CNC(=O)[C@H](Cc1c[nH]c2ccccc12)NC(=O)[C@@H](CC(=O)NO)CC(C)C` [GM6001, reference compound], which nH (MMP-9 (h)) is on record?
**A.** 1.6

**Q.** How did the nH (5-HT3 (h)) turn out when `CN1[C@@H]2CC[C@H]1C[C@@H](OC(=O)c1cc(Cl)cc(Cl)c1)C2` [MDL 72222] was run?
**A.** 1.1

**Q.** `c1ccc(C2(N3CCCCC3)CCCCC2)cc1` [PCP, Phencyclidine, reference compound] was tested. Which locomotor activity (NMRI mice) did it give?
**A.** substantially increased activity

**Q.** How did the nH (p38α kinase (h)) turn out when `Oc1ccc(-c2nc(-c3ccncc3)c(-c3ccc(F)cc3)[nH]2)cc1` [SB202190, reference compound] was run?
**A.** 1.4

**Q.** With `COc1ccc(C[C@@H]2NC(=O)CC3(CCCCC3)SSC[C@@H](C(=O)N3CCC[C@H]3C(=O)N[C@@H](CCCNC(=N)N)C(=O)NCC(N)=O)NC(=O)[C@H](CC(N)=O)NC(=O)[C@H](CCC(N)=O)NC(=O)[C@H](Cc3ccccc3)NC2=O)cc1` [[d(CH2)51,Tyr(Me)2]-AVP, reference compound] (Y(Me)FQNCPRG-NH2; linker N-5 via X1 (inferred)) as the molecule, how does the nH (V1a (h)) read?
**A.** 0.9

**Q.** With `C[C@@H]1C[C@H]2[C@@H]3CCC4=CC(=O)C=C[C@]4(C)[C@@]3(F)[C@@H](O)C[C@]2(C)[C@@]1(O)C(=O)CO` [dexamethasone] as the molecule, how does the nH (GR (h)) read?
**A.** 1.1

**Q.** How did the nH [1] turn out when `COc1ccc([C@@H]2Sc3ccccc3N(CCN(C)C)C(=O)[C@@H]2OC(C)=O)cc1` [diltiazem, reference compound] was run?
**A.** 1.2

**Q.** `OCCN(CCO)c1nc(N2CCCCC2)c2nc(N(CCO)CCO)nc(N3CCCCC3)c2n1` [dipyridamole] was tested. Which nH (PDE5 (h) (non-selective)) did it give?
**A.** 1.7 and 1.0

**Q.** `CN(C)CCCN1c2ccccc2CCc2ccccc21` [imipramine, reference compound] was tested. Which nH (5-HT transporter (h)) did it give?
**A.** 0.9

**Q.** And the immobility time (CD-1 mice)?
**A.** decreased immobility time

**Q.** With `O=C(c1ccc(F)cc1)C1CCN(CCn2c(=O)[nH]c3ccccc3c2=O)CC1` [ketanserin, reference compound] as the molecule, how does the nH (5-HT2A (h)) read?
**A.** 1.4

**Q.** For `COc1ccccc1CNCCCCCCNCCCCCCCCNCCCCCCNCc1ccccc1OC` [methoctramine], which nH (M2 (h)) is on record?
**A.** 0.9

**Q.** With `Cc1[nH]c(=O)c(C#N)cc1-c1ccncc1` [milrinone, reference compound] as the molecule, how does the nH (PDE3A (h)) read?
**A.** 1.0

**Q.** `C[C@@H]1O[C@@H](O[C@H]2C[C@@H](O)[C@]3(CO)[C@H]4[C@H](O)C[C@]5(C)[C@@H](C6=CC(=O)OC6)CC[C@]5(O)[C@@H]4CC[C@]3(O)C2)[C@H](O)[C@H](O)[C@H]1O` [ouabain, reference compound] was tested. Which IC50 (ATPase (Na+/K+)) did it give?
**A.** 1200 nM

**Q.** What does the source list for `CN[C@@H]1C[C@H]2O[C@@](C)([C@@H]1OC)n1c3ccccc3c3c4c(c5c6ccccc6n2c5c31)C(=O)NC4` [staurosporine, reference compound]?
**A.** nH [2]: 1.4; nH (ZAP70 kinase (h)): 1.2

**Q.** How did the IC50 (Ca2+ channel (N)) turn out when `C[C@@H](O)[C@@H]1NC(=O)[C@H](Cc2ccc(O)cc2)NC(=O)[C@@H]2C[C@@H](O)CN2C(=O)[C@H](CC(N)=O)NC(=O)[C@@H]2CSSC[C@@H]3NC(=O)[C@H](CO)NC(=O)[C@H](CO)NC(=O)CNC(=O)[C@@H]4C[C@@H](O)CN4C(=O)[C@H](CO)NC(=O)[C@H](CCCCN)NC(=O)[C@@H](N)CSSC[C@H](NC(=O)[C@H](CSSC[C@@H](C(=O)N[C@@H](Cc4ccc(O)cc4)C(N)=O)NC(=O)[C@H](CCCN=C(N)N)NC(=O)[C@H](CCCCN)NC1=O)NC(=O)[C@H](CC(N)=O)NC(=O)[C@H](Cc1ccc(O)cc1)NC(=O)[C@H](CO)NC(=O)[C@H]([C@@H](C)O)NC(=O)[C@@H]1C[C@@H](O)CN1C(=O)[C@H](CO)NC3=O)C(=O)N[C@@H](CCCN=C(N)N)C(=O)N[C@@H](CO)C(=O)N2` [ω-conotoxin GVIA, reference compound] was run?
**A.** 0.0012 nM

**Q.** How did the nH (D2S (h)) turn out when (+)butaclamol was run?
**A.** 1.1
